Patent US11447466B2, “Substituted indole compounds useful as inhibitors of TLR7/8/9” (BRISTOL-MYERS SQUIBB COMPANY, priority 2017, dated 2022)

Tests used:
Type in all cases: cell-based
human TLR9 = biological target: T1, human TLR9 (Homo sapiens, UniProt Q9NR96); test: TLR9 inhibition reporter assay (HEK-Blue SEAP reporter, ODN2006 stimulation); conditions: HEK-Blue cells overexpressing human TLR9, SEAP reporter, ODN2006 5 nM, 22 hour incubation
T1 construct: host or cells: HEK-Blue cells
T1 sequence (Q9NR96 26-1032): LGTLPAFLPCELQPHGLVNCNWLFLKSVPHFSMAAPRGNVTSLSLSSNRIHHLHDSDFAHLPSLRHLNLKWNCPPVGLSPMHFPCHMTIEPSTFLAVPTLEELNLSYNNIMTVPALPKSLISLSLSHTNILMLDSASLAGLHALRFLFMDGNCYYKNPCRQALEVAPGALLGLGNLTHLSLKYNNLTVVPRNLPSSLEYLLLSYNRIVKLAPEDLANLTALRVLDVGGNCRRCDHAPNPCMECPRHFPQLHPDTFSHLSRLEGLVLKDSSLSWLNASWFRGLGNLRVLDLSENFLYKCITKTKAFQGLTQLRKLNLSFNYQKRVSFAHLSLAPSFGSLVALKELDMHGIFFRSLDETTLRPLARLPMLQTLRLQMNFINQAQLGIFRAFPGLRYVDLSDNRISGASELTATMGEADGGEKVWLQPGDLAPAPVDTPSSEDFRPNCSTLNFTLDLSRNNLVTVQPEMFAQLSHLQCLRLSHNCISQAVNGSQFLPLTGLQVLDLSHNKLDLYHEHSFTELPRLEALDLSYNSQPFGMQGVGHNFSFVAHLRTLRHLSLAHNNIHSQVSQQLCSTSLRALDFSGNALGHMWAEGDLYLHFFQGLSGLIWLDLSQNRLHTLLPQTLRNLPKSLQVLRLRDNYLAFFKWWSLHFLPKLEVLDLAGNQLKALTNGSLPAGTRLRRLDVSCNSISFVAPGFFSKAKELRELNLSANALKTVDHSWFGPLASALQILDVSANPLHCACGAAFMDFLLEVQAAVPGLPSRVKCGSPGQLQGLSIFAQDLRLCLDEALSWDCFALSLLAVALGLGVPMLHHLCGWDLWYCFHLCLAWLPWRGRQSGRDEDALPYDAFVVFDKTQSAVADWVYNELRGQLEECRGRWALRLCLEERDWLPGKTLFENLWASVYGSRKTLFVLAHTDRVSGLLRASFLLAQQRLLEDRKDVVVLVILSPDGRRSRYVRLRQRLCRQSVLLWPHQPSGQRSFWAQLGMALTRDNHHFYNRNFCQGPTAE
Procedure, shortened: (§1)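 Agonists used: gardiquimod 7.5 μM (TLR7), R848 15.9 μM (TLR8), ODN2006 5 nM (TLR9), added after 30 min room-temperature compound pre-treatment (0.05 nM–50 μM) of receptor-overexpressing HEK-Blue cells. SEAP reporter (NF-κB/AP-1 driven) read after 22 h at 37 °C; inhibition scaled between agonist+DMSO and reference-inhibitor wells.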

human TLR8 = biological target: T2, human TLR8 (Homo sapiens, UniProt Q9NR97); test: TLR8 inhibition reporter assay (HEK-Blue SEAP reporter, R848 stimulation); conditions: HEK-Blue cells overexpressing human TLR8, SEAP reporter, R848 15.9 μM, 22 hour incubation
T2 construct: host or cells: HEK-Blue cells
T2 sequence (Q9NR97 27-1041): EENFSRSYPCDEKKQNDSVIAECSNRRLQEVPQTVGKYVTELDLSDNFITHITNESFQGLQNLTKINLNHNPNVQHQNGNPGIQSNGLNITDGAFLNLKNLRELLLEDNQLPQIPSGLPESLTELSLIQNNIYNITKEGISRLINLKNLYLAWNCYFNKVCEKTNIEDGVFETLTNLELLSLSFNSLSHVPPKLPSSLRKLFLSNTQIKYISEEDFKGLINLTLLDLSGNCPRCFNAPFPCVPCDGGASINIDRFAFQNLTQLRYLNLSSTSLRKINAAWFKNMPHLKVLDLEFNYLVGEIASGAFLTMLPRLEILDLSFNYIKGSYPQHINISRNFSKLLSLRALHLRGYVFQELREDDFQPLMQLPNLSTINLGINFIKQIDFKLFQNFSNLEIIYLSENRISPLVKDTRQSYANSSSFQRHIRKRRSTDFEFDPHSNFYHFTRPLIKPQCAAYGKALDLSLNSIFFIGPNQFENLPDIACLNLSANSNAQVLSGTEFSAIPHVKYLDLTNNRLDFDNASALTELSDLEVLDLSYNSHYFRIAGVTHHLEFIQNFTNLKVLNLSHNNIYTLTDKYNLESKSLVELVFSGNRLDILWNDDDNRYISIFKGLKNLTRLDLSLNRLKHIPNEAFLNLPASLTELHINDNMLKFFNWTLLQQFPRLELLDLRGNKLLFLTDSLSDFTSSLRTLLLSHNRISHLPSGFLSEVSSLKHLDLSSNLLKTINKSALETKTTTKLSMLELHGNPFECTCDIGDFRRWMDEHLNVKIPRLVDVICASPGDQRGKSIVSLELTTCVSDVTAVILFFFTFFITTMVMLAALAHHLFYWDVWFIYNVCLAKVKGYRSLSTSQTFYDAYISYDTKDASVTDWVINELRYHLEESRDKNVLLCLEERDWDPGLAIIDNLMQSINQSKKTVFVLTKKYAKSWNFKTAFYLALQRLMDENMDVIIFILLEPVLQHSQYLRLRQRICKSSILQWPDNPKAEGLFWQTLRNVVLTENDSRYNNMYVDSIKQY
Procedure, shortened: as §1

human TLR7 = biological target: T3, human TLR7 (Homo sapiens, UniProt Q9NYK1); test: TLR7 inhibition reporter assay (HEK-Blue SEAP reporter, gardiquimod stimulation); conditions: HEK-Blue cells overexpressing human TLR7, SEAP reporter, gardiquimod 7.5 μM, 22 hour incubation
T3 construct: host or cells: HEK-Blue cells
T3 sequence (Q9NYK1 27-1049): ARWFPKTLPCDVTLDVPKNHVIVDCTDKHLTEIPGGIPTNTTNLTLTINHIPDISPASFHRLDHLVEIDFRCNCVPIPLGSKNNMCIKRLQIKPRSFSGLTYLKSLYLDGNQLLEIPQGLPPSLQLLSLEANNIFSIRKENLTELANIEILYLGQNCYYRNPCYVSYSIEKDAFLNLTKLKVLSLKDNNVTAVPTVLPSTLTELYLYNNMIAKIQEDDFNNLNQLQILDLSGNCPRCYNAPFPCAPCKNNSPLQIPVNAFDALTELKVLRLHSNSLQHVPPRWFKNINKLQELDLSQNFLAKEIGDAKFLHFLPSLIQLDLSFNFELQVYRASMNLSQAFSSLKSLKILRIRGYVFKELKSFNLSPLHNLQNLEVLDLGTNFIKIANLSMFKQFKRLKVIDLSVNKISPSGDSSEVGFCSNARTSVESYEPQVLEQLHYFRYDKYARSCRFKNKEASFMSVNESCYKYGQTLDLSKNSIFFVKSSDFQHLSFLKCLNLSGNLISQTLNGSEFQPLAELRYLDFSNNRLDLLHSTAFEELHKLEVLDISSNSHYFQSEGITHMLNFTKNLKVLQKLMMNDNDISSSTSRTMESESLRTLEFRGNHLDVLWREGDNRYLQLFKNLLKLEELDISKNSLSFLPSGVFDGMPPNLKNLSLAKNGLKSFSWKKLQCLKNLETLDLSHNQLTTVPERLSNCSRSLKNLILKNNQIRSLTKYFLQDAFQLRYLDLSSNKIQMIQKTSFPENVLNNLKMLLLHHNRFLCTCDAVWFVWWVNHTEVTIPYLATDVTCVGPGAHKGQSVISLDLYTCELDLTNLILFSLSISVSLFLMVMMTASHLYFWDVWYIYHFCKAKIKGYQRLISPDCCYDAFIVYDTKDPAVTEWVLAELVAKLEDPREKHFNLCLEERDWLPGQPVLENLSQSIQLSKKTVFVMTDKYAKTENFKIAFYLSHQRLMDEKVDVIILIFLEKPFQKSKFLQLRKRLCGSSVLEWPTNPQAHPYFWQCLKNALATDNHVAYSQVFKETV
Procedure, shortened: as §1

Row | Compound | IC50 (human TLR9) [nM] | IC50 (human TLR8) [nM] | IC50 (human TLR7) [nM]
1 | Cc1cc(-c2[nH]c3ccc(C4CCN(CC(C)C)CC4)cc3c2C(C)C)cn(C)c1=O [Example 75, 5-(5-(1-isobutylpiperidin-4-yl)-3-isopropyl-1H-indol-2-yl)-1,3-dimethylpyridin-2(1H)-one] | 9330 | 5.6 | 5
2 | CC(C)c1c(-c2cc(-c3cncnc3)c(=O)n(C)c2)[nH]c2ccc(C3CCNCC3)cc12 [Example 54, 5-(3-isopropyl-5-(piperidin-4-yl)-1H-indol-2-yl)-1-methyl-3-(pyrimidin-5-yl)pyridin-2(1H)-one] | 753 | 5.9 | 23.4
3 | Cc1cc(-c2[nH]c3ccc(C4CCNCC4)cc3c2C(C)C)cn(C)c1=O [Example 2, 5-(3-isopropyl-5-(piperidin-4-yl)-1H-indol-2-yl)-1,3-dimethylpyridin-2(1H)-one] | 4340 | 5.1 | 1.6
4 | CNC(=O)CN1CCC(c2ccc3[nH]c(-c4cn(C)c(=O)c(Cl)c4C)c(C(C)C)c3c2)CC1 [Example 153, 2-(4-(2-(5-chloro-1,4-dimethyl-6-oxo-1,6-dihydropyridin-3-yl)-3-isopropyl-1H-indol-5-yl)piperidin-1-yl)-N-methylacetamide] | 7880 | 12.6 | 3.5
5 | CNC(=O)CN1CCC(c2ccc3[nH]c(-c4cc(C)c(=O)n(C)c4C)c(C(C)C)c3c2)CC1 [Example 139, 2-(4-(3-isopropyl-2-(1,2,5-trimethyl-6-oxo-1,6-dihydropyridin-3-yl)-1H-indol-5-yl)piperidin-1-yl)-N-methylacetamide] | 10400 | 4.2 | 15.4
6 | CC(C)c1c(-c2cc(-c3cncnc3)c(=O)n(C)c2)[nH]c2ccc(C3CCN(CC4CCOCC4)CC3)cc12 [Example 100, 5-(3-isopropyl-5-(1-((tetrahydro-2H-pyran-4-yl)methyl)piperidin-4-yl)-1H-indol-2-yl)-1-methyl-3-(pyrimidin-5-yl)pyridin-2(1H)-one] | 3060 | 2.3 | 21.5

Continued, values first:

Row | IC50 (human TLR9) [nM] | IC50 (human TLR8) [nM] | IC50 (human TLR7) [nM] | Compound
7 | 782 | 72.6 | 14.5 | COCCN1CCC(c2ccc3[nH]c(-c4cc(-c5ccc(C)nc5)c(=O)n(C)c4)c(C(C)C)c3c2)CC1 [Example 349, 5-(3-isopropyl-5-(1-(2-methoxyethyl)piperidin-4-yl)-1H-indol-2-yl)-1,6′-dimethyl-[3,3′-bipyridin]-2(1H)-one]
8 | 851 | 2 | 7.3 | CCCN1CCC(c2ccc3[nH]c(-c4cc(-c5cccnc5)c(=O)n(C)c4)c(C(C)C)c3c2)CC1 [Example 245, 5-(3-isopropyl-5-(1-propylpiperidin-4-yl)-1H-indol-2-yl)-1-methyl-[3,3′-bipyridin]-2(1H)-one]
9 | 3740 | 2.2 | 4.3 | Cc1cc(-c2[nH]c3ccc(C4CCN(CC5=NN=CC5)CC4)cc3c2C(C)C)cn(C)c1=O [Example 200, 5-(5-(1-((4H-pyrazol-3-yl)methyl)piperidin-4-yl)-3-isopropyl-1H-indol-2-yl)-1,3-dimethylpyridin-2(1H)-one]
10 | 5030 | 42.6 | 20.1 | Cc1cc(-c2[nH]c3ccc(C4CCN(C)CC4)cc3c2C(C)C)cn(CC(F)(F)F)c1=O [Example 265, 5-(3-isopropyl-5-(1-methylpiperidin-4-yl)-1H-indol-2-yl)-3-methyl-1-(2,2,2-trifluoroethyl)pyridin-2(1H)-one]
11 | 2240 | 3.1 | 23.2 | CCCN1CCC(c2ccc3[nH]c(-c4cc(-c5cncnc5)c(=O)n(CC)c4)c(C(C)C)c3c2)CC1 [Example 260, 1-ethyl-5-(3-isopropyl-5-(1-propylpiperidin-4-yl)-1H-indol-2-yl)-3-(pyrimidin-5-yl)pyridin-2(1H)-one]
12 | 13500 | 8.3 | 5.3 | Cc1cc(-c2[nH]c3ccc(C4CCN(C(=O)CN(C)C)CC4)cc3c2C(C)C)cn(C)c1=O [Example 271, 5-(5-(1-(2-(dimethylamino)acetyl)piperidin-4-yl)-3-isopropyl-1H-indol-2-yl)-1,3-dimethylpyridin-2(1H)-one]
13 | 3110 | 7 | 31.1 | CCn1cc(-c2[nH]c3ccc(C4CCN(C5CCOCC5)CC4)cc3c2C(C)C)c(C)c(C)c1=O [Example 208, 1-ethyl-5-(3-isopropyl-5-(1-(tetrahydro-2H-pyran-4-yl)piperidin-4-yl)-1H-indol-2-yl)-3,4-dimethylpyridin-2(1H)-one]
14 | 47800 | 25 | 25.5 | Cc1cc(-c2[nH]c3ccc(C4CCN(C5COC5)CC4)cc3c2C(C)C)nn(C)c1=O [Example 189, 6-(3-isopropyl-5-(1-(oxetan-3-yl)piperidin-4-yl)-1H-indol-2-yl)-2,4-dimethylpyridazin-3(2H)-one]
